The values below come from patent publication US20120165332A1, “SULFONAMIDES AND SULFAMIDES AS ZAP-70 INHIBITORS” (Cellzome Limited, priority 2009, published 2012).

Where only a bound is given, the exact number is not on record here.

The IC50 is the point on the concentration scale where inhibition reaches its midpoint. The low end stands for greater potency, the high end for weaker potency.

The experiment addresses T1, ZAP-70 (Homo sapiens, UniProt P43403).
T1 construct: endogenous in cells; host or cells: cell lysate
T1 sequence (P43403 1-619): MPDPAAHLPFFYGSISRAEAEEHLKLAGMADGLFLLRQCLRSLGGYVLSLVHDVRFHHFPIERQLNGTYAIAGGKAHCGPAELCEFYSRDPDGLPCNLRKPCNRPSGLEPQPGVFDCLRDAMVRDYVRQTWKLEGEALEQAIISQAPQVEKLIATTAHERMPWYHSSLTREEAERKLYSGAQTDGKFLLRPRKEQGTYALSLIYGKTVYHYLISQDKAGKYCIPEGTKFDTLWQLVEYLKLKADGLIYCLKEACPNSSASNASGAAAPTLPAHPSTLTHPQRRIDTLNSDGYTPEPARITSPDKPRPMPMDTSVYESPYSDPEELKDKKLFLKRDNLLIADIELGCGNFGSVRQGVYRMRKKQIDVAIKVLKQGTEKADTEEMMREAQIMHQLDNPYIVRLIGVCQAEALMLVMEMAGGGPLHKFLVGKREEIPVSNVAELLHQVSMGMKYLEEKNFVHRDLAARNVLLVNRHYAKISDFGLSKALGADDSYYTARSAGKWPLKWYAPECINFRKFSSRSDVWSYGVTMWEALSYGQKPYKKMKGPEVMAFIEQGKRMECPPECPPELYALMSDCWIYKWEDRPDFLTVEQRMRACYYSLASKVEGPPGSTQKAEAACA
The experiment can be described thus: ZAP-70 kinobeads assay. Format: binding. Conditions: cell lysate, affinity matrix with immobilized aminopyrido-pyrimidine ligand 24, dot blot detection. On the procedure: The compounds of the present invention as described in the previous examples can be tested in the ZAP-70 kinobeads assay as described (EP-A 1862802 and WO-A 2007/137867). Briefly, test compounds (at various concentrations) and the affinity matrix with the immobilized aminopyrido-pyrimidine ligand 24 are added to cell lysate aliquots and allowed to bind to the proteins in the lysate sample. After the incubation time the beads with captured proteins are separated from the lysate. Bound proteins are then eluted and the presence ZAP-70 is detected and quantified using a specific antibody in a dot blot procedure and the Odyssey infrared detection system.
The compound `COc1cc(Nc2ncc(F)c(Nc3cccc(C)c3N(CCCNC=O)S(C)(=O)=O)n2)cc(OC)c1OC` [Example 28, N-(3-(N-(2-(5-fluoro-2-(3,4,5-trimethoxyphenylamino)pyrimidin-4-ylamino)-6-methylphenyl)methylsulfonamido)propyl)formamide] had a concentration for half-maximal inhibition (IC50) of 100 to 1000 nM.
`COc1ccc(Nc2nc(Nc3cc(OC)c(OC)c(OC)c3)ncc2Cl)c(N(CCCNC(C)=O)S(C)(=O)=O)c1` [Example 29, N-(3-(N-(2-(5-chloro-2-(3,4,5-trimethoxyphenylamino)pyrimidin-4-ylamino)-5-methoxyphenyl)methylsulfonamido)propyl)acetamide]: the IC50 was ≤ 100 nM.
With `COc1ccc(Nc2nc(Nc3cc(OC)c(OC)c(OC)c3)ncc2Cl)c(N(CCNC(C)=O)S(C)(=O)=O)c1` [Example 30] the figure was ≤ 100 nM.
In turn, `COc1ccc(Nc2nc(Nc3ccnn3C)ncc2Cl)c(N(C[C@H]2CCC(=O)N2)S(C)(=O)=O)c1` [Example 31] had a half-inhibitory concentration (IC50) of 1000 to 10000 nM.
`CS(=O)(=O)N(CCN1CCOCC1)c1ccccc1Nc1nc(Nc2cccc(O)c2)ncc1F` [Example 32, N-(2-(5-fluoro-2-(3-hydroxyphenylamino)pyrimidin-4-ylamino)phenyl)-N-(2-morpholinoethyl)methanesulfonamide] came in with an IC50 of 1000 to 10000 nM.
Compound `COc1cc(Nc2ncc(F)c(Nc3ccccc3N(CCN3CCCC3)S(C)(=O)=O)n2)cc(OC)c1OC` [Example 33, N-(2-(5-fluoro-2-(3,4,5-trimethoxyphenylamino)pyrimidin-4-ylamino)phenyl)-N-(2-(pyrrolidin-1-yl)ethyl)methanesulfonamide] returned a 50% inhibitory concentration (IC50) of 1000 to 10000 nM.
